Laboratory results as given in publication PMC5590800 (Biomolecules & Therapeutics, 2017).
“And” between values parts separate entries of the source, which are not always exact repeats. Identical values can stand only once. Like-named read-outs stand apart in the source and are kept apart here.

Columns and labels:
[1] = In vitro daunomycin cytotoxicity assay; type: cell-based; conditions: human
[2] = type: in vivo, Sprague-Dawley rats
[3] = oral administration; ref Sezgin-Bayindir et al., 2013; Cai et al., 2014; cited from earlier work
[4] = male, Sprague-Dawley, rat, plasma, iv, 2 mg/kg
[5] = male, Sprague-Dawley, rat, plasma, po, 25 mg/kg

Row | Clt of PTX ([2]; PTX IV 2 mg/kg, rats, 2 mg/kg) | Relative BA of PTX ([2]; PTX PO 25 mg/kg alone (oral control), rats) [%] | Absolute BA of PTX ([2]; PTX PO 25 mg/kg alone vs IV 2 mg/kg, rats) [%] | Clt/F of PTX ([2]; PTX PO 25 mg/kg alone, rats) [L/h] | AUC(0-inf) [2, 4] [ng·h/mL] | AUC(0-t) [2, 4] [ng·h/mL] | C0 [2, 4] [ng/mL] | Vd [2, 4] [L] | half-life [2, 4] [h] | k el [2, 4] [s⁻¹] | AUC(0-inf) [2, 5] [ng·h/mL] | AUC(0-t) [2, 5] [ng·h/mL] | Cmax [2, 5] [ng/mL] | Tmax [2, 5] [h] | Vd/F [2, 5] [L] | half-life [2, 5] [h] | k el [2, 5] [s⁻¹] | SMILES | IC50 at 2 h [1] [µM] | Oral bioavailability of PTX [3] [%]
1 | – | – | – | – | – | – | – | – | – | – | – | – | – | – | – | – | – | COc1cccc2c1C(=O)c1c(O)c3c(c(O)c1C2=O)C[C@@](O)(C(C)=O)C[C@@H]3O[C@H]1C[C@H](N)[C@H](O)[C@H](C)O1 [DNM, Daunomycin] | 10.4 ± 0.53 | –
2 | 0.328 L/h and 0.328 ± 0.097 L/h | 100.0 | 2.0 | 12.7 ± 2.8 | 1790 ± 522 | 1660 ± 499 | 3330 ± 1160 | 2.06 ± 0.36 | 4.55 ± 1.02 | 4.47e-05 | 564 ± 116 | 409 ± 47.2 | 60.6 ± 10.3 | 4.2 ± 1.1 | 73.6 ± 14.9 | 4.26 ± 1.62 | 5.06e-05 | CC(=O)O[C@H]1C(=O)[C@@]2(C)[C@H]([C@H](OC(=O)c3ccccc3)[C@]3(O)C[C@H](OC(=O)[C@H](O)[C@@H](NC(=O)c4ccccc4)c4ccccc4)C(C)=C1C3(C)C)[C@]1(OC(C)=O)CO[C@@H]1C[C@@H]2O [PTX, Paclitaxel] | – | < 5
